For the assay, the target named is T1, human nicotinic alpha7 WT receptor (Homo sapiens, UniProt P36544).
T1 construct: expressed in transfected cells; host or cells: GH4C1 cells (rat pituitary-derived cell line), RPA clone #34.7
Put plainly: Nicotinic alpha 7 modulation assay (FLIPR, cytosolic Ca2+ elevation, FLUO-3). The assay is classed as cell-based. Here is the method:
Cell Culture Growth Media: F10 medium (Invitrogen), 2.5% Fetal Bovine Serum (FBS, Summit Biotechnology); 15% heat inactivated donor Horse Serum (Invitrogen), 250 μg/ml Hygromycin B (Invitrogen); and 100 nM Methyllicaconite (MLA, Sigma) are added to each new culture by 50-fold dilution of stock solution prepared in H2O at […].
GH4C1 cells (rat pituitary-derived cell line) stably expressing human nicotinic alpha7 WT receptor (RPA clone #34.7) are cultivated in cell culture growth media (described above) at 37 C in a humidified atmosphere containing 4% CO2. […]
The alpha 7 nAChR assay is a cell-based functional readout designed to determine the effect of test compounds to either directly activate nicotinic receptor channels and/or to modulate activation by the native agonist acetylcholine (ACh, Sigma). […]
Assay of test compound effect on activation of the alpha7 nicotinic receptor channel is done by measurement of cytosolic [Ca^2+] elevation as reported by increased FLUO-3 fluorescence using a two addition experimental design and FLIPR™ (Molecular Devices). Following a 30 second baseline recording, test compounds are added online (dilution scheme below) and cell response is recorded for an additional 5 minutes. After a second addition of ACh (30 μM, FAC), plates are read for an additional 4 minutes. […]

Molecules are shown by their SMILES.

T1 sequence (P36544 23-502): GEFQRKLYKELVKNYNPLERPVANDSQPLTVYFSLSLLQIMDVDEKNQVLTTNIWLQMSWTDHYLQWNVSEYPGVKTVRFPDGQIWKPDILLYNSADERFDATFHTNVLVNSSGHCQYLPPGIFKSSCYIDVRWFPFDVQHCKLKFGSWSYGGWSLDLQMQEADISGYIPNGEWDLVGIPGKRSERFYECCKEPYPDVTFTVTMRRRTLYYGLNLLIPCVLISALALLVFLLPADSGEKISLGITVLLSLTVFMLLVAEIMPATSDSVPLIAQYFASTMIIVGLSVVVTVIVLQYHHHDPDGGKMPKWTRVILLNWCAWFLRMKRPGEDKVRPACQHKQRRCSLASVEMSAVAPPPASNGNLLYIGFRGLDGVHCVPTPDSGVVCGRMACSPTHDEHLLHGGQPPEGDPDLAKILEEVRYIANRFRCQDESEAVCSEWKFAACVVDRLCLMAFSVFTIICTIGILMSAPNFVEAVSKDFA

For `C#CC1(NC(=O)c2cc(-c3ccc(OC)cc3C)ccc2OCC2CC2)CCCCC1` [I-6, 4-Cyclopropylmethoxy-4′-methoxy-2′-methyl-biphenyl-3-carboxylic acid (1-ethynyl-cyclohexyl)-amide], the EC50 came to 220 nM. Moreover, under “GH4C1 cells stably expressing human nicotinic alpha7 WT receptor, FLIPR, second addition of ACh 30 μM”, the positive allosteric modulation is recorded as 255%.

The values are drawn from patent US8198332B2, “Salicylamide derivatives as nicotinic alpha 7 modulators” (Roche Palo Alto LLC, priority 2008, dated 2012).
